Measured values taken from PubChem BioAssay AID330 (DTP/NCI, 2004).
Where “and” joins values, the source holds several entries; their conditions need not be identical. Equal values may be shown once. Inconclusive results and toxic doses are left out.

Tested on: P388 leukemia ip, CD2F1 mice, survival T/C
Experiment: NCI In Vivo Anticancer Drug Screen. Data for tumor model P388 Leukemia (intraperitoneal) in CD2F1 (CDF1) mice
Conditions: endpoint: median survival time, higher = longer survival
Method in brief: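 Mice carrying the transplanted tumor received test compound or vehicle. Survival was recorded in each group, and the value is the treated-group measurement divided by that of the vehicle-treated control group.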

[1] = dose: 50.0 mg/kg/injection, schedule: Q01DX005 (ip), vehicle: Klucel (hydroxypropylcellulose) (HPC)
[2] = dose: 100.0 mg/kg/injection, schedule: Q01DX005 (ip), vehicle: Klucel (hydroxypropylcellulose) (HPC)
[3] = dose: 200.0 mg/kg/injection, schedule: Q01DX005 (ip), vehicle: Klucel (hydroxypropylcellulose) (HPC)
[4] = dose: 60.0 mg/kg/injection, schedule: Q01DX005 (ip), vehicle: saline with Tween-80
[5] = dose: 120.0 mg/kg/injection, schedule: Q01DX005 (ip), vehicle: saline with Tween-80
[6] = dose: 240.0 mg/kg/injection, schedule: Q01DX005 (ip), vehicle: saline with Tween-80
[7] = dose: 50.0 mg/kg/injection, schedule: Q01DX009 (ip), vehicle: saline with Tween-80
[8] = dose: 100.0 mg/kg/injection, schedule: Q04DX003 (ip), vehicle: saline with Tween-80
[9] = dose: 200.0 mg/kg/injection, schedule: Q01DX009 (ip), vehicle: saline with Tween-80
[10] = dose: 200.0 mg/kg/injection, schedule: Q04DX003 (ip), vehicle: saline with Tween-80
[11] = dose: 400.0 mg/kg/injection, schedule: Q01DX009 (ip), vehicle: saline with Tween-80
[12] = dose: 100.0 mg/kg/injection, schedule: Q04DX002 (ip), vehicle: saline with Tween-80
[13] = dose: 200.0 mg/kg/injection, schedule: Q04DX002 (ip), vehicle: saline with Tween-80
[14] = dose: 50.0 mg/kg/injection, schedule: Q01DX005 (ip), vehicle: saline
[15] = dose: 100.0 mg/kg/injection, schedule: Q01DX005 (ip), vehicle: saline

C=C1C(=O)OC2C1C(OC(=O)/C(C)=C/C)CC1(C)C(=O)CCC(=C)C21 (stereo not given)
T/C (dose: 12.5 mg/kg/injection, schedule: Q01DX005 (ip), vehicle: Klucel (hydroxypropylcellulose) (HPC)): 110 % of control | T/C (dose: 25.0 mg/kg/injection, schedule: Q01DX005 (ip), vehicle: Klucel (hydroxypropylcellulose) (HPC)): 104 % of control and 106 % of control and 107 % of control | T/C [1]: 106 % of control and 109 % of control and 112 % of control | T/C [2]: 109 % of control | T/C (dose: 150.0 mg/kg/injection, schedule: Q01DX005 (ip), vehicle: Klucel (hydroxypropylcellulose) (HPC)): 107 % of control | T/C [3]: 108 % of control and 111 % of control

Cc1ccc(N2C(=O)C(C)SC23C(=O)Nc2ccc(Cl)cc23)cc1 (stereo not given)
T/C [4]: 91 % of control | T/C [5]: 96 % of control | T/C [6]: 100 % of control

C/C=C/C(C#N)OC(C)=O (stereo not given)
T/C (dose: 3.75 mg/kg/injection, schedule: Q01DX005 (ip), vehicle: saline): 100 % of control | T/C (dose: 7.5 mg/kg/injection, schedule: Q01DX005 (ip), vehicle: saline): 100 % of control

COc1ccc(-c2c(CC(=O)O)c3cc(OC)ccc3n2Cc2ccc(Cl)cc2)cc1
T/C [7]: 101 % of control | T/C (dose: 100.0 mg/kg/injection, schedule: Q01DX009 (ip), vehicle: saline with Tween-80): 100 % of control | T/C [8]: 90 % of control | T/C [9]: 100 % of control | T/C [10]: 90 % of control | T/C [11]: 91 % of control | T/C (dose: 400.0 mg/kg/injection, schedule: Q04DX003 (ip), vehicle: saline with Tween-80): 90 % of control

CCN1C(=O)C(=NO)C(=O)N(CC)C1=S.CCN1C(=O)C(=N[O-])C(=O)N(CC)C1=S.CCN1C(=O)C(=N[O-])C(=O)N(CC)C1=S.[Fe+3]
T/C [12]: 94 % of control | T/C [13]: 102 % of control

CN1/C(=C/C(=S)SCC(=O)c2ccccc2)C=Cc2ccccc21
T/C (dose: 50.0 mg/kg/injection, schedule: Q04DX002 (ip), vehicle: saline with Tween-80): 94 % of control | T/C [12]: 90 % of control | T/C [13]: 88 % of control

FC(F)(F)C1OC2CCCN2C2=C1CCc1ccccc12 (stereo not given)
T/C (dose: 100.0 mg/kg/injection, schedule: Q04DX002 (ip), vehicle: saline): 108 % of control | T/C (dose: 200.0 mg/kg/injection, schedule: Q04DX002 (ip), vehicle: saline): 101 % of control | T/C (dose: 400.0 mg/kg/injection, schedule: Q04DX002 (ip), vehicle: saline): 100 % of control

CCN(CC)c1ccc(N=Nc2nc(Cl)c(/C=C3\C(=O)c4ccccc4C3=C(C#N)C#N)s2)c(NC(C)=O)c1
T/C [4]: 96 % of control | T/C [5]: 97 % of control | T/C [6]: 95 % of control

CS(=O)(=O)OCC1NC(=O)C(COS(C)(=O)=O)NC1=O (stereo not given)
T/C (dose: 50.0 mg/kg/injection, schedule: Q01DX009 (ip), vehicle: other): 106 % of control and 103 % of control | T/C (dose: 100.0 mg/kg/injection, schedule: Q01DX009 (ip), vehicle: other): 98 % of control and 103 % of control | T/C (dose: 200.0 mg/kg/injection, schedule: Q01DX009 (ip), vehicle: other): 107 % of control | T/C (dose: 400.0 mg/kg/injection, schedule: Q01DX009 (ip), vehicle: other): 103 % of control

Nc1nc(Cc2ccccc2)c(CCCNc2ccccc2)c(=O)[nH]1
T/C (dose: 0.78 mg/kg/injection, schedule: Q01DX009 (ip), vehicle: saline): 100 % of control | T/C (dose: 1.56 mg/kg/injection, schedule: Q01DX009 (ip), vehicle: saline): 100 % of control | T/C (dose: 3.13 mg/kg/injection, schedule: Q01DX009 (ip), vehicle: saline): 102 % of control | T/C (dose: 6.25 mg/kg/injection, schedule: Q01DX009 (ip), vehicle: saline): 100 % of control

C=CCN(CC=C)P1(=O)NCCCO1 (stereo not given)
T/C [14]: 103 % of control | T/C [15]: 102 % of control | T/C (dose: 200.0 mg/kg/injection, schedule: Q01DX005 (ip), vehicle: saline): 105 % of control

N=C(N)SCc1cccc(-c2nc3ccccc3c(=O)o2)c1
T/C (dose: 50.0 mg/kg/injection, schedule: Q01DX009 (ip), vehicle: saline): 102 % of control | T/C (dose: 100.0 mg/kg/injection, schedule: Q01DX009 (ip), vehicle: saline): 113 % of control

N#Cc1c(-c2ccc(Cl)cc2)c(-c2ccc(Cl)cc2)nn(CCOC(=O)CCC(=O)O)c1=O
T/C (dose: 3.13 mg/kg/injection, schedule: Q01DX005 (ip), vehicle: distilled water + Tween-80): 100 % of control | T/C (dose: 6.25 mg/kg/injection, schedule: Q01DX005 (ip), vehicle: distilled water + Tween-80): 100 % of control | T/C (dose: 12.5 mg/kg/injection, schedule: Q01DX005 (ip), vehicle: distilled water + Tween-80): 105 % of control | T/C (dose: 12.5 mg/kg/injection, schedule: Q01DX005 (ip), vehicle: saline): 104 % of control | T/C (dose: 12.5 mg/kg/injection, schedule: Q01DX005 (ip), vehicle: sodium bicarbonate): 103 % of control | T/C (dose: 12.5 mg/kg/injection, schedule: Q04DX002 (ip), vehicle: distilled water + Tween-80): 106 % of control | T/C (dose: 25.0 mg/kg/injection, schedule: Q01DX005 (ip), vehicle: distilled water + Tween-80): 114 % of control and 117 % of control | T/C (dose: 25.0 mg/kg/injection, schedule: Q01DX005 (ip), vehicle: saline): 112 % of control | T/C (dose: 25.0 mg/kg/injection, schedule: Q01DX005 (ip), vehicle: sodium bicarbonate): 112 % of control | T/C (dose: 25.0 mg/kg/injection, schedule: Q04DX002 (ip), vehicle: distilled water + Tween-80): 105 % of control and 113 % of control | T/C (dose: 50.0 mg/kg/injection, schedule: Q01DX005 (ip), vehicle: distilled water + Tween-80): 172 % of control and 184 % of control | T/C [15]: 180 % of control | T/C (dose: 100.0 mg/kg/injection, schedule: Q01DX005 (ip), vehicle: sodium bicarbonate): 202 % of control | T/C (dose: 100.0 mg/kg/injection, schedule: Q04DX002 (ip), vehicle: distilled water + Tween-80): 115 % of control and 92 % of control

CCN(CC)CCCC(C)Nc1nccc2c(Cl)cccc12 (stereo not given)
T/C [14]: 108 % of control | T/C [15]: 109 % of control

COC(=O)c1ccc(Cl)cc1O
T/C (dose: 12.5 mg/kg/injection, schedule: Q01DX009 (ip), vehicle: distilled water + Tween-80): 92 % of control | T/C (dose: 25.0 mg/kg/injection, schedule: Q01DX009 (ip), vehicle: distilled water + Tween-80): 100 % of control | T/C (dose: 50.0 mg/kg/injection, schedule: Q01DX009 (ip), vehicle: distilled water + Tween-80): 102 % of control | T/C (dose: 100.0 mg/kg/injection, schedule: Q01DX009 (ip), vehicle: distilled water + Tween-80): 102 % of control | T/C (dose: 200.0 mg/kg/injection, schedule: Q01DX009 (ip), vehicle: distilled water + Tween-80): 92 % of control

COC(=O)C1=Cc2c(n3ncnc3n(-c3ccccc3)c2=O)N(S(=O)(=O)c2ccc(C)cc2)CC1
T/C [4]: 93 % of control | T/C [5]: 95 % of control | T/C [6]: 97 % of control

CCC(=O)c1cccc2c(C=O)c(Cl)n(C(=O)CC)c12
T/C (dose: 50.0 mg/kg/injection, schedule: Q01DX001 (ip), vehicle: Klucel (hydroxypropylcellulose) (HPC)): 100 % of control | T/C (dose: 100.0 mg/kg/injection, schedule: Q01DX001 (ip), vehicle: Klucel (hydroxypropylcellulose) (HPC)): 100 % of control | T/C (dose: 200.0 mg/kg/injection, schedule: Q01DX001 (ip), vehicle: Klucel (hydroxypropylcellulose) (HPC)): 101 % of control

Cc1cc(C)c(C#N)c(SC(C(=O)NC(C)(C)C)c2ccccc2)n1 (stereo not given)
T/C [1]: 88 % of control | T/C [2]: 87 % of control | T/C [3]: 87 % of control

CCCCCCCCCCCCCCCCCCOC(=O)Cc1ccc(N(CCCl)CCCl)cc1
T/C (dose: 45.0 mg/kg/injection, schedule: Q01DX009 (ip), vehicle: saline with Tween-80): 168 % of control | T/C (dose: 90.0 mg/kg/injection, schedule: Q01DX009 (ip), vehicle: saline with Tween-80): 163 % of control | T/C (dose: 180.0 mg/kg/injection, schedule: Q01DX009 (ip), vehicle: saline with Tween-80): 150 % of control

CCSC(=O)N1c2ccc(OC)cc2C=CC1C#N (stereo not given)
T/C (dose: 44.0 mg/kg/injection, schedule: Q01DX009 (ip), vehicle: saline with Tween-80): 119 % of control | T/C [7]: 105 % of control | T/C (dose: 66.0 mg/kg/injection, schedule: Q01DX009 (ip), vehicle: saline with Tween-80): 119 % of control | T/C [8]: 109 % of control | T/C (dose: 150.0 mg/kg/injection, schedule: Q01DX009 (ip), vehicle: saline with Tween-80): 160 % of control | T/C [9]: 108 % of control | T/C [10]: 118 % of control | T/C (dose: 266.0 mg/kg/injection, schedule: Q04DX003 (ip), vehicle: saline with Tween-80): 124 % of control | T/C [11]: 118 % of control | T/C (dose: 800.0 mg/kg/injection, schedule: Q01DX009 (ip), vehicle: saline with Tween-80): 96 % of control
